# Tests used:
# Format in all cases: in vivo, mouse
# TH = TH expression in striatum after 6-OHDA lesioning; details: 6-OHDA 4 mg/mL, 2 μL unilateral, lesioned vs unlesioned side
# Method: Protein samples of 50 lg ran on 10% sodium dodecyl sulfate-polyacrylamide gel electrophoresis gels and transferred onto polyvinylidine diflouride membranes using semi-dry transfer method (Trans turbo blot; BioRad Laboratories, Hercules, Calif., USA). Striatal samples from WT and P2X4R KO mice were made to run on the same gel and transferred onto the same membrane. Nonspecific binding was blocked by incubation in 5% non-fat dry milk, followed by incubation with primary antibodies overnight at 4° C. The antibodies used were rabbit anti-TH (1:5000), mouse anti-DAT (1:1000), rabbit anti-D2 receptor (1:1000), rabbit anti-DARPP-32 (1:1000) (Millipore), rabbit anti-D1 receptor (1:500; SantaCruz biotechnology, Santacruz, Calif., USA), mouse anti-total ERK 1/2 (1:1000), rabbit anti-total CREB (1:1000) (Cell Signaling Technology, Beverly, Mass., USA), mouse anti-β-actin (1:20 000; Sigma-Aldrich), and mouse anti-α-tubulin (1:10 000; Millipore). The antibodies for phospho proteins included rabbit antiphospho-Thr34-DARPP-32 (1:400; Millipore), rabbit anti-phospho-Ser133-CREB (1:500), rabbit anti-diphospho-Thr202/Tyr204-ERK 1/2 (1:500) (Cell Signaling Technology). Secondary antibodies included goat anti-mouse and goat anti-rabbit antibodies (1:10 000; BioRad Laboratories). […] Protein quantification was carried out by optical densitometry using ImageJ software (NIH, Bethesda, Md., USA). […]
# [1] = system: 6-OHDA lesioned WT and P2X4R KO mice; experiment: L-DOPA-induced rotational behavior in the 6-OHDA model of DA depletion (Example 1)
# Method: Mice were treated with desipramine hydrochloride (25 mg/kg, i.p.) (Sigma-Aldrich) 30 min prior to surgery to prevent concurrent damage of noradrenergic pathways by 6-OHDA. Mice were anesthetized with avertin ([…], i.p.) and placed in the stereotaxic apparatus. Two μL of freshly prepared 6-OHDA bromide salt (4 mg/mL in 0.2% ascorbic acid and 0.9% saline; Sigma-Aldrich) was unilaterally infused into left median forebrain bundle (from Bregma point: 1.2 mm posterior, 1.1 mm lateral, 5 mm ventral) (Franklin, B. J. and Paxinos, G. (2007) The Mouse Brain in Stereotaxic Coordinates. Elsevier Academic Press, Amsterdam) at a rate of 0.5 μL/min using a 10 μL Hamilton syringe and a microlitre syringe pump. The injection cannula was left in place for 3-5 min to prevent reflux and ensure complete absorption. Post-operative procedures involved daily subcutaneous (s.c.) injections with sucrose (5% w/v in saline) and warming on a heating pad for 2 weeks.
# Mice were subjected to behavioral testing 3 weeks after 6-OHDA lesioning surgery. Mice were placed in a plastic cylinder (318 mm in diameter) with a video camera mounted above it. Baseline rotational behavior was established by saline injections which causes the mouse to rotate toward the lesioned side with lesser DA activity (ipsilateral rotations). L-DOPA (5 mg/kg, s.c.) was administered 5 min prior to behavioral testing and the number of contralateral and ipsilateral rotations were counted in every 10-minute interval for a total period of 90 min.
# For the western blotting analysis, the average of densitometry values of WT striatal samples was used to arbitrarily normalize WT samples to 1 and the P2X4R KO striatal samples were normalized by dividing each densitometry value by the average of WT samples. Normalization of the two genotypes was done within the same membrane and presented as fold change of P2X4R KO versus WT in that membrane. For D1, D2, DARPP-32, ERK 1/2, and CREB immunoblotting; WT and P2X4R KO mice were generated in separate cohorts. The normalization of P2X4R KO to WT samples was done within the same cohort followed by combining data from two cohorts for analyses. […] Normalized density of proteins was expressed as mean±SEM. Phosphorylation was calculated as ratio of normalized values of phosphorylated form to total form of protein. DA levels were expressed as ng/mg of protein content. Unpaired Student t-test was used for analyzing the differences in protein densities and DA levels between WT and P2X4R KO groups. […] Pharmacological studies for motor behavior and sensorimotor gating were analyzed by two-way repeated measures ANOVA with time/PPI intensity and genotype/treatment as within and between-subjects variability, respectively, followed by Bonferroni post hoc test for multiple comparisons. Significance was set at p<0.05. All data were analyzed using GraphPad Prism software (San Diego, Calif., USA).
# WT and P2X4R KO mice = experiment: Prepulse inhibition (PPI) of acoustic startle reflex
# Method: Acoustic startle reflex and PPI were tested as previously described (Wyatt, L. R. et al. (2013) Neuropsychopharmacology 38:1993-2002). The apparatus used for detection of startle reflex (San Diego Instruments, San Diego, Calif., USA) consisted of a standard cage placed in sound attenuated chambers with fan ventilation. Each cage consisted of a Plexiglass cylinder of 3 cm diameter, mounted on piezoelectric accelerometric platform connected to an analog-digital converter. Background noise and acoustic bursts were conveyed by two separate speakers, each one oriented appropriately so as to produce a variation in sound within 1 dB across the startle cage. Both speakers and startle cages were connected to the main PC, which detected and analyzed all chamber variables with Startle software (San Diego Instruments). Before each testing session, acoustic stimuli were calibrated via a digital sound level meter.
# During the baseline session, mice were exposed to background noise of 70 dB and, after an acclimatization period of 5 min, were presented with 12 40 ms trials of 115 dB interposed with three trials of a 82 dB pre-stimulus preceding the 115 dB by 100 ms. […] Delta PPI (APPI) was calculated as mean startle amplitude for pulse alone trials—(mean startle amplitude for prepulse trial). […]
# For the western blotting analysis, the average of densitometry values of WT striatal samples was used to arbitrarily normalize WT samples to 1 and the P2X4R KO striatal samples were normalized by dividing each densitometry value by the average of WT samples. […] Normalized density of proteins was expressed as mean±SEM. Phosphorylation was calculated as ratio of normalized values of phosphorylated form to total form of protein. DA levels were expressed as ng/mg of protein content. […] Pharmacological studies for motor behavior and sensorimotor gating were analyzed by two-way repeated measures ANOVA with time/PPI intensity and genotype/treatment as within and between-subjects variability, respectively, followed by Bonferroni post hoc test for multiple comparisons. […]
compound,measurement,setting,value
"NCCc1cc(O)c(O)cc1O [6-OHDA, 6-hydroxydopamine]",reduced TH expression in the striatum,TH; P2X4R KO mice,96.3%
same,reduced TH expression in the striatum,TH; WT mice,95.7%
"N[C@@H](Cc1ccc(O)c(O)c1)C(=O)O [L-DOPA, L-3,4-didhydrophenylalanine]",rotational behavior with L-DOPA treatment,"[1]; L-DOPA 5 mg/kg s.c., 6-OHDA lesioned WT and P2X4R KO mice",exhibited contralateral rotations
same,"L-DOPA-induced contralateral turns, P2X4R KO compared to WT mice","[1]; L-DOPA 5 mg/kg, significant during the 45-55 min interval",significantly fewer
CCN1CCC[C@H]1CNC(=O)c1c(O)c(Cl)cc(Cl)c1OC [raclopride],PPI of acoustic startle reflex,"WT and P2X4R KO mice; P2X4R KO mice vs saline, SCH-23390 1 mg/kg i.p. or raclopride 3 mg/kg i.p., 10 min prior, significant at PPI 6 and PPI 12",significantly enhanced
same,startle amplitude,"WT and P2X4R KO mice; P2X4R KO mice, SCH-23390 1 mg/kg or raclopride 3 mg/kg",without any changes
same,PPI function,"WT and P2X4R KO mice; WT mice, SCH-23390 1 mg/kg or raclopride 3 mg/kg i.p.",no significant changes

# Source: patent US20180271888A1, “COMPOSITIONS AND METHODS FOR PARKINSON'S DISEASE THERAPY” (priority 2017, published 2018)
